Experimental findings from ChEMBL document CHEMBL1201862, “PubChem BioAssay data set” (2004) are described below.

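Interpolation was linear, between the two tested concentrations surrounding the appropriate level; five concentrations were tested over 48 hours in 96-well plates. At the GI50, growth is halved.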 Active and inactive are the calls of the source. Cut-off read from the data, not from the text of the source: active = GI50 up to about 1.1 µM and inactive = higher.

Among the test systems are SK-MEL-28; CCRF-CEM; SF-268; SF-539; ACHN; TK-10; A549; SW-620; Malme-3M; K562; HCC 2998; HOP-92; SK-MEL-5; NCI-H522; UO-31; SK-OV-3.
Common to all, as to assay: inhibition of tumour cell growth, NCI panel, 48 h

Consider `COc1ccc(/C=C2\CCC(C)(CN(C)C)C2=O)cc1OC` (stereo unspecified), for which the GI50 in the experiment with SK-MEL-28, with CCRF-CEM, with SF-268, in the experiment on SF-539, in the experiment with ACHN and in the experiment with TK-10 was > 100 µM (inactive) throughout. Besides, the GI50 in the experiment with A549, with SW-620, in the experiment with Malme-3M, in the experiment on K562, in the experiment on HCC 2998 and with HOP-92 was > 100 µM (inactive) in each case. For the same compound, the GI50 in the experiment with SK-MEL-5, with NCI-H522 and with UO-31 was > 100 µM (inactive) in each case.

`COc1ccc(C2C(Cl)C(=O)N2n2cnc3ccccc3c2=O)cc1OC` (stereo unspecified): the GI50 is 68.7 µM (inactive) in the experiment with SK-MEL-28; > 10 µM (inactive) in the experiment on CCRF-CEM; 85.7 µM (inactive) with SF-268; > 100 µM (inactive) with ACHN; > 100 µM (inactive) with TK-10; 76.4 µM (inactive) with SK-OV-3. For the same compound, the GI50 in the experiment on A549, with SW-620, in the experiment on Malme-3M, in the experiment on K562, in the experiment with HCC 2998 and with SK-MEL-5 was > 100 µM (inactive) in each case. Also, the figures for the GI50 with NCI-H522 and in the experiment on UO-31 were 57.9 µM (inactive) and 22.3 µM (inactive), respectively.

On to `C[P+](C)(CC(F)(F)F)c1ccccc1`, for which the GI50 in the experiment on CCRF-CEM, in the experiment with SF-539, in the experiment with ACHN, in the experiment on TK-10, in the experiment on SK-OV-3 and in the experiment with A549 was > 100 µM (inactive) each time. In addition, the GI50 in the experiment with SW-620, in the experiment on Malme-3M, in the experiment on K562, in the experiment on HCC 2998, with SK-MEL-5 and in the experiment on NCI-H522 was > 100 µM (inactive) each time. Further, the GI50 in the experiment with UO-31 is > 100 µM (inactive).

On to `N#CCN1CCOCCOCCN(CC#N)CCOCCOCC1`, for which the GI50 in the experiment on SK-MEL-28, with CCRF-CEM, with SF-268, in the experiment on SF-539, with ACHN and in the experiment with TK-10 was > 100 µM (inactive) each time. The GI50 with A549, in the experiment on SW-620, with Malme-3M, in the experiment on K562, in the experiment on HCC 2998 and in the experiment on HOP-92 was > 100 µM (inactive) throughout. Besides, the GI50 with SK-MEL-5 and in the experiment on UO-31 was > 100 µM (inactive) each time.

For the compound `CC(C)N1CN(C(C(=O)N[C@@H]2C(=O)N3C2SC(C)(C)C3C(=O)O)c2ccccc2)CSC1=S` (stereo partly specified), the GI50 in the experiment with SK-MEL-28, in the experiment on CCRF-CEM, with SF-268, with SF-539, in the experiment on ACHN and with TK-10 was > 100 µM (inactive) in each case. Further, the GI50 in the experiment with SK-OV-3 was > 100 µM (inactive); with Malme-3M it was > 100 µM (inactive); in the experiment on K562, 30.6 µM (inactive); with HOP-92 it was > 100 µM (inactive); in the experiment on SK-MEL-5, > 100 µM (inactive); with NCI-H522, 27.8 µM (inactive). In the experiment on UO-31, the GI50 was > 100 µM (inactive).

`COc1ccc2n[se]nc2c1`: the GI50 in the experiment on SK-MEL-28 is > 100 µM (inactive); with CCRF-CEM, > 100 µM (inactive); with SF-268 it was > 100 µM (inactive); with SF-539 it was 23.1 µM (inactive); in the experiment with ACHN, > 100 µM (inactive); in the experiment with TK-10 it was 70.6 µM (inactive). The GI50 in the experiment with SK-OV-3 was 46.3 µM (inactive); with A549, 45.5 µM (inactive); in the experiment with SW-620, > 100 µM (inactive); in the experiment with Malme-3M, 65.8 µM (inactive); with K562, > 100 µM (inactive); in the experiment with HCC 2998, 38.6 µM (inactive). Besides, the results for the GI50 with SK-MEL-5, in the experiment on NCI-H522 and with UO-31 were 50.1 µM (inactive), > 100 µM (inactive) and 59.3 µM (inactive), respectively.

For the compound `O=C1CCCC1NC(=O)C(F)(F)F` (stereo unspecified), the GI50 in the experiment on SK-MEL-28, with CCRF-CEM, in the experiment on SF-268, in the experiment with SF-539, in the experiment on ACHN and with TK-10 was > 100 µM (inactive) throughout. Besides, the GI50 in the experiment on SK-OV-3 was > 100 µM (inactive); in the experiment on A549, > 100 µM (inactive); with SW-620 it was > 100 µM (inactive); with Malme-3M it was 0.182 µM (active); in the experiment on K562 it was > 100 µM (inactive); in the experiment on HOP-92, > 100 µM (inactive). Also, the GI50 in the experiment with SK-MEL-5, in the experiment with NCI-H522 and with UO-31 was > 100 µM (inactive) each time.

With `O=C(O)CN(c1ccccc1)S(=O)(=O)c1ccccc1[N+](=O)[O-]`, the GI50 in the experiment with SK-MEL-28, with CCRF-CEM, with SF-268, with SF-539, with ACHN and in the experiment on TK-10 was > 100 µM (inactive) in each case. For the same compound, the GI50 in the experiment with SK-OV-3 was > 100 µM (inactive); with A549 it was > 100 µM (inactive); in the experiment with SW-620 it was > 100 µM (inactive); in the experiment on Malme-3M, > 100 µM (inactive); in the experiment with K562, > 10 µM (inactive); with HOP-92, > 100 µM (inactive). Moreover, the GI50 with SK-MEL-5, in the experiment on NCI-H522 and in the experiment on UO-31 was > 100 µM (inactive) throughout.

Turning to `COc1cccc(/C=C2\CCC(CCN(C)C)(C3=CCCC3)C2=O)c1` (stereo unspecified), the GI50 in the experiment on SK-MEL-28 was 15.9 µM (inactive); in the experiment with CCRF-CEM, 19.1 µM (inactive); with SF-268 it was 21.3 µM (inactive); in the experiment on SF-539, 16.1 µM (inactive); in the experiment with ACHN, 16.7 µM (inactive); in the experiment with TK-10, 15.8 µM (inactive). Further, the GI50 in the experiment with A549 is 16.1 µM (inactive); in the experiment with SW-620 it was 13.9 µM (inactive); in the experiment on Malme-3M, 15.6 µM (inactive); in the experiment on K562, 15.5 µM (inactive); in the experiment on HCC 2998, 16.7 µM (inactive); in the experiment with HOP-92, 12.3 µM (inactive). The GI50 with SK-MEL-5 was 17.7 µM (inactive); in the experiment with NCI-H522, 13.4 µM (inactive); in the experiment on UO-31, 13.6 µM (inactive).

As to `CN1CCN(CN2C(=O)C3C4C=CC(C3C2=O)C2C3C(=O)N(CN5CCN(C)CC5)C(=O)C3C42)CC1` (stereo unspecified), the GI50 was 23.5 µM (inactive) in the experiment on SK-MEL-28; 29.2 µM (inactive) with CCRF-CEM; 25.3 µM (inactive) with SF-268; 22.2 µM (inactive) with SF-539; 28.2 µM (inactive) in the experiment with ACHN; 38 µM (inactive) with TK-10. For the same compound, the GI50 in the experiment with A549 is 32.4 µM (inactive); with SW-620 it was 19 µM (inactive); in the experiment on K562, 26.9 µM (inactive); with HCC 2998, 34.7 µM (inactive); in the experiment on SK-MEL-5 it was 17 µM (inactive); in the experiment on UO-31, 30.3 µM (inactive).
